In publication PMC10550967, “Structure of the ceramide-bound SPOTS complex” (Nature Communications, 2023):

Legend:
[1] = biological target: T1, SPOTS complex (monomeric, with Sac1) (Saccharomyces cerevisiae, UniProt P25045+P40970+P53224, P53224:S51A/P53224:S52A/P53224:S53A); test: colorimetric CoA release assay; type: biochemical; conditions: 30 µM PLP, 0.008% GDN, pH 6.8, RT, 1 h, FLAG-purified complex (mixture of SPOT and SPOTS), catalytic site Lcb1/Lcb2
T1 construct: gene LCB1; co-overexpressed in S. cerevisiae (GAL1 promoter); 3xFLAG inserted between codons 9 and 10 of LCB1, kept; GDN-solubilised; monomeric 1:1:1:1:1; Site chains differ by ligand (see pair conditions); The purified sample also holds Sac1-free SPOT monomer and dimer; with Serine palmitoyltransferase-regulating protein TSC3; Phosphoinositide phosphatase SAC1

SPOT complex (monomer) = biological target: T2, SPOT complex (monomer) (Saccharomyces cerevisiae, UniProt P25045+P40970+P53224, P53224:S51A/P53224:S52A/P53224:S53A); test: cryo-EM structure, […] Å; type: binding; conditions: site: pocket of Lcb1 TM0a helix and Orm1 TM4, three molecules; co-purified endogenous lipid
T2 construct: gene LCB1; same preparation as P1, cryo-EM class without Sac1; monomeric; 3xFLAG inserted between codons 9 and 10 of LCB1; GDN-solubilised; Site chains differ by ligand (see pair conditions); with Serine palmitoyltransferase-regulating protein TSC3

[2] = biological target: T1, SPOTS complex (monomeric, with Sac1); test: cryo-EM structure, […] Å; coupled enzymatic assay of bound sterol; type: binding; conditions: site: pocket of Lcb1 TM0a helix and Orm1 TM4, three molecules; co-purified endogenous lipid
[3] = biological target: the molecule itself; test: cryo-EM structure; single-particle cryo-EM of the FLAG-purified complex in GDN, 10 mg/ml; one dataset gave a C2 symmetric SPOT dimer, a SPOT monomer and a SPOTS monomer with Sac1

T1 sequence (P25045 whole entry, one chain of several): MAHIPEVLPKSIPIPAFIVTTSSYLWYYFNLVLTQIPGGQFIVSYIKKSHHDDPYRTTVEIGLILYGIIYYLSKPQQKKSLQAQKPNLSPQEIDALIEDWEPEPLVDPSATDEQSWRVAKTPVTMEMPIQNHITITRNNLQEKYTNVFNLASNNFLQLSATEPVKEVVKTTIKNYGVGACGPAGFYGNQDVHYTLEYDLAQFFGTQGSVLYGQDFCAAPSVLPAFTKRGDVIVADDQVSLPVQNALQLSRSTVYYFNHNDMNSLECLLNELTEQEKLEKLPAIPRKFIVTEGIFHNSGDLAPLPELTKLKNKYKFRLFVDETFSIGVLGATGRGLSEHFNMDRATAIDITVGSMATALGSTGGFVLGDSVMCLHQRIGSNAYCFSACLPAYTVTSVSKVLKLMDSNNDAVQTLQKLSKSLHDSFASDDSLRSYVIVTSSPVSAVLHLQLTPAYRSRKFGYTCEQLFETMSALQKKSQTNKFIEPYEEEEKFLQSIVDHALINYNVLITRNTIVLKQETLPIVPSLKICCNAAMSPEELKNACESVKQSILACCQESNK
T1 sequence (P53224 whole entry S51A/S52A/S53A, one chain of several): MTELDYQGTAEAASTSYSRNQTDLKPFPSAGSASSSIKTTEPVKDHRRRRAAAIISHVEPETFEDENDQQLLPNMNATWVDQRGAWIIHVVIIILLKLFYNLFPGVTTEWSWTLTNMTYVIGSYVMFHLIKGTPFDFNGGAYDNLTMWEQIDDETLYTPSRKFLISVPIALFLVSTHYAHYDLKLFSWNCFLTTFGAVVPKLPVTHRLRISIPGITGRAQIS
T1 sequence (Q3E790 whole entry partner, one chain of several): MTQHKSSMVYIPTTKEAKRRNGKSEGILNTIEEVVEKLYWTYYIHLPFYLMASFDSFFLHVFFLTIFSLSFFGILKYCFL
T1 sequence (P32368 whole entry partner, one chain of several): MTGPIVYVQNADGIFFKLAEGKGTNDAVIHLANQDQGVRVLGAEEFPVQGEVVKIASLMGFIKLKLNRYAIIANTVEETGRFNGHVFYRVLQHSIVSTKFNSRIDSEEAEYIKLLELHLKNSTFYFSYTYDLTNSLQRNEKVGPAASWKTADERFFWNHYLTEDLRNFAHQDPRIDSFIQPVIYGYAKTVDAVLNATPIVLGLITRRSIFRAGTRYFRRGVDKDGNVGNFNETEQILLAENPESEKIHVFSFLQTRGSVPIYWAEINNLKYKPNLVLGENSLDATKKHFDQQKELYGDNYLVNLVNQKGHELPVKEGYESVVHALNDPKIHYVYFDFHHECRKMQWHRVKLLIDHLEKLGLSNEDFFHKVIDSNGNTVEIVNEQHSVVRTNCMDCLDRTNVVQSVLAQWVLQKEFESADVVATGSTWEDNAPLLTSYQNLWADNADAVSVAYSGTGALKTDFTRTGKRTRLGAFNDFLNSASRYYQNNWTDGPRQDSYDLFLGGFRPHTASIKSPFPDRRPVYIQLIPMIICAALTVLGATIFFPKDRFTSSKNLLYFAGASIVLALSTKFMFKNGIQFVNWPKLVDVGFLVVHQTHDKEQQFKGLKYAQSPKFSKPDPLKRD
T2 sequence (P25045 whole entry, one chain of several): as the sequence (P25045 whole entry, one chain of several) above
T2 sequence (P53224 whole entry S51A/S52A/S53A, one chain of several): as the sequence (P53224 whole entry S51A/S52A/S53A, one chain of several) above
T2 sequence (Q3E790 whole entry partner, one chain of several): as the sequence (Q3E790 whole entry partner, one chain of several) above

For N[C@@H](CO)C(=O)O [L-serine], which “colorimetric CoA release assay” value ([1]; 100 µM palmitoyl-CoA) is on record?
Its value is “release of CoA-SH from the SPT-catalyzed condensation of palmitoyl-CoA and L-serine”.

What does the source list for CC(C)[C@@H](C)/C=C/[C@@H](C)[C@H]1CC[C@H]2C3=CC=C4C[C@@H](O)CC[C@]4(C)[C@H]3CC[C@]12C [ergosterol]?
cryo-EM structure, 3.4 Å (SPOT complex (monomer)): in which three structurally well-resolved ergosterol molecules are positioned; cryo-EM structure, 3.3 Å; coupled enzymatic assay of bound sterol [2]: Lcb1-TM0a directly interacts with three molecules of ergosterol

With CCCCCCCCCCCCCCCC(=O)SCCNC(=O)CCNC(=O)[C@H](O)C(C)(C)COP(=O)(O)OP(=O)(O)OC[C@H]1O[C@@H](n2cnc3c(N)ncnc32)[C@H](O)[C@@H]1OP(=O)(O)O [palmitoyl-CoA] as the molecule, how does the “colorimetric CoA release assay” value ([1]; 15 mM L-serine) read?
Its value is “release of CoA-SH from the SPT-catalyzed condensation of palmitoyl-CoA and L-serine”.

B1: Lcb2 (enzyme, S. cerevisiae)
chain: MSTPANYTRVPLCEPEELPDDIQKENEYGTLDSPGHLYQVKSRHGKPLPEPVVDTPPYYISLLTYLNYLILIILGHVHDFLGMTFQKNKHLDLLEHDGLAPWFSNFESFYVRRIKMRIDDCFSRPTTGVPGRFIRCIDRISHNINEYFTYSGAVYPCMNLSSYNYLGFAQSKGQCTDAALESVDKYSIQSGGPRAQIGTTDLHIKAEKLVARFIGKEDALVFSMGYGTNANLFNAFLDKKCLVISDELNHTSIRTGVRLSGAAVRTFKHGDMVGLEKLIREQIVLGQPKTNRPWKKILICAEGLFSMEGTLCNLPKLVELKKKYKCYLFIDEAHSIGAMGPTGRGVCEIFGVDPKDVDILMGTFTKSFGAAGGYIAADQWIIDRLRLDLTTVSYSESMPAPVLAQTISSLQTISGEICPGQGTERLQRIAFNSRYLRLALQRLGFIVYGVADSPVIPLLLYCPSKMPAFSRMMLQRRIAVVVVAYPATPLIESRVRFCMSASLTKEDIDYLLRHVSEVGDKLNLKSNSGKSSYDGKRQRWDIEEVIRRTPEDCKDDKYFVN
modifications: PLP forms an internal aldimine with K366
notes: Lcb2, catalytic subunit of serine palmitoyltransferase, S. cerevisiae; also called SPT subunit; source: S. cerevisiae, co-expressed with the other SPOTS subunits under the GAL1 promoter
Does B1 bind [3]?
Result: binds
